From ChEMBL document CHEMBL3091426, “Synthesis and antitumor-evaluation of 1,3-selenazole-containing 1,3,4-thiadiazole derivatives” (Bioorg Med Chem Lett, 2013)

How the values were obtained:
L1210 = assay: Antiproliferative activity against mouse L1210 cells by CCK-8 assay; type: functional, cell-based
MCF7 = assay: Antiproliferative activity against human MCF7 cells by CCK-8 assay; type: functional, cell-based

IC50 (L1210) | IC50 (MCF7) | SMILES
> 100 µM | 49.1 µM | O=[N+]([O-])c1ccc(/C=N/c2nnc(SCc3c[se]c(-c4ccccc4)n3)s2)cc1
58.6 µM | 7.55 µM | Cc1ccc(/C=N/c2nnc(SCc3c[se]c(-c4ccccc4)n3)s2)cc1
> 100 µM | 31.1 µM | Oc1ccc(/C=N/c2nnc(SCc3c[se]c(-c4ccccc4)n3)s2)cc1
56.9 µM | 10.2 µM | Fc1ccc(/C=N/c2nnc(SCc3c[se]c(-c4ccccc4)n3)s2)cc1
38.7 µM | 15.2 µM | Oc1ccccc1/C=N/c1nnc(SCc2c[se]c(-c3ccccc3)n2)s1
62.2 µM | 8.51 µM | Oc1ccc(/C=N/c2nnc(SCc3c[se]c(-c4ccccc4)n3)s2)c(O)c1
46.5 µM | 14.8 µM | Brc1ccc(/C=N/c2nnc(SCc3c[se]c(-c4ccccc4)n3)s2)cc1
> 100 µM | 15 µM | COc1cc(/C=N/c2nnc(SCc3c[se]c(-c4ccccc4)n3)s2)ccc1O
> 100 µM | 80.3 µM | CN(C)c1ccc(/C=N/c2nnc(SCc3c[se]c(-c4ccccc4)n3)s2)cc1
46.5 µM | 25.6 µM | C(=N\c1nnc(SCc2c[se]c(-c3ccccc3)n2)s1)/c1ccccc1
50 µM | 4.02 µM | Clc1ccc(/C=N/c2nnc(SCc3c[se]c(-c4ccccc4)n3)s2)cc1

SMILES | IC50 (L1210) | IC50 (MCF7)
O=C(O)c1c[se]c(-c2ccccc2)n1 | 60.1 µM | 16.6 µM
